Source: paper PMC9144807, “Fluorine-18 Labeled Urea-Based Ligands Targeting Prostate-Specific Membrane Antigen (PSMA) with Increased Tumor and Decreased Renal Uptake” (Pharmaceuticals, 2022)
Read-outs that look alike come from different tables or passages of the source.

Tests used:
[1] = test system: PC3(−) xenografts; experiment: In vivo biodistribution in PC3(−) xenograft mice (negative control); details: 60 min; for PC3(−) Tumor T:M: mean ± SE, n = 8–10
Method: (§1) PC3(−) (wildtype human prostate cancer cell line, PSMA negative) and PC3(+) (transfected with human PSMA) were provided by Dr. Hisataka Kobayashi. Cell lines were grown at 37 °C in 5% CO2 in RPMI-1640 supplemented with 10% FBS, 2 mM L-glutamine and Pen/Strep/Amphotericin B. PC3(+) and PC3(−) cell suspensions [2 × 10^6 cells; PBS:Matrigel (70:30)] from in vitro cell culture were subcutaneously implanted (right shoulder) into athymic mice (Athymic NCr- nu/nu, Charles River Laboratory, 4 weeks old) for use as positive and negative controls, respectively, for in vitro or in vivo studies. When tumors reached the appropriate size (>100 mg) the xenograft mice were used for in vivo biodistributions and imaging studies or the tumors were excised and further processed to obtain membrane preparations for in vitro assays as described previously.
(§2) Tumor-bearing mice (tumor weights: 0.1–0.8 g) were injected while awake via the tail vein with each of the tracers [0.74–3.7 MBq (20 to 100 µCi), 10 to 80 pmol] and euthanized (via CO2 inhalation) at selected times. […] Blood samples and tissues were excised from each animal, weighed, and radioactivity content was determined (Perkin Elmer 2480 Wizard3). Radioactivity content in the blood and each tissue was expressed as % injected dose per gram of tissue [%ID/g; (Formula (1))] and then normalized for body weight to a 20 g mouse (Formula (2)) from which Tissue:Muscle ratios [T:M; (Formula (3))] were determined as follows:(1) %ID/g =[counts per minute cpmtissue / tissue weight g]×100/cpmtotal injected dose
(§3) %ID/g (normalized to a 20 g mouse) = (%ID/g) × (body weight/20 g)(2)
(§4) (3) T:M=%ID/gtissue/%ID/gmuscle

[2] = molecular target: T1, PSMA (Homo sapiens, UniProt Q04609); experiment: In vitro saturation binding assay with PC3(+) tumor membrane preparations
T1 construct: expressed in transfected cells; host or cells: PC3(+) (PC3 human prostate cancer cells transfected with human PSMA), grown as xenograft tumors in athymic mice; tumor membrane preparations
Method: as §1
In vitro saturation studies were performed to determine binding affinities (Kd) and PSMA expression levels (Bmax) using tumor membrane preparations from PC3(−) and PC3(+) PSMA xenografts (human prostate cancer cell line transfected with human PSMA; PC3(+)). […] Filter papers were collected, and the radioactive content was quantified by gamma counting (PerkinElmer 2480 Wizard3). […] Aliquots of each membrane preparation were taken for the determination of the protein concentration (Bradford method).

[3] = molecular target: T1, PSMA; experiment: In vitro competition binding assay with [18F]DCFPyL as radioligand, PC3(+) tumor membrane preparations
[4] = Fraction of intact tracer (parent) in blood and kidney by TLC; type: in vivo, mice; details: for %Parent compound in blood (TLC analysis): 60 min, mean ± SD, n = 2–5; for tissue uptake at 1 h: 60 min post-injection; for tissue uptake at 2 h: 120 min post-injection
From the text: In some cases, additional blood samples and/or tissue samples after gamma counting were taken for determining the fraction of intact radiolabeled tracer (parent) using thin-layer chromatography (TLC). For these TLC determinations: tissues were placed in equal volumes of acetonitrile and homogenized, or serum was obtained from the blood samples and mixed with an equal volume of acetonitrile. Following centrifugation of the samples, supernatants were collected and the radioactive content of the supernatants and pellets were determined. The supernatants were then applied to thin-layer chromatography (TLC) plates. The TLC plates were developed [solvent system: ethyl acetate (80%), methanol (10%) and acetic acid (10%)], and exposed on a phosphorimaging plate which was scanned the next day.

[5] = test system: PC3(+) xenografts; experiment: In vivo biodistribution in PC3(+) xenograft mice; parameters: key to salivary gland T:M / Femur T:M / Blood T:M / Kidney T:M / Liver T:M: T:M = (%ID/g in tissue) / (%ID/g in muscle)
Method: as §1, §2, §3, §4

[6] = test system: PC3(+) tumor xenograft mice; experiment: Small animal PET imaging with ROI analysis, PC3(+) tumor xenograft mice; type: in vivo; details: 60 min post-injection
Method: Tumor-bearing mice were anesthetized with isoflurane/O2 (1.5–3% v/v) and imaged at various times after intravenous injection of each tracer [2.6 to 3.7 MBq (70 to 100 µCi)]. Whole body static PET images were obtained at 2 bed positions (FOV = 2.0 cm, total imaging time: 10 min) using a BioPET scanner (Bioscan Inc., Washington, DC, USA). The images were reconstructed by a 3-dimensional ordered-subsets expectation maximum (3D-OSEM).

[7] = test system: PC3(+) xenografts; experiment: Blocking biodistribution study in PC3(+) xenografts, coinjection of non-radioactive DCFPyL; type: in vivo, mice; details: 60 min
Method: as §2, §3, §4

[8] = 15 min post-injection, mean ± SE
[9] = 30 min post-injection, mean ± SE
[10] = mouse, blood, intravenous, mean ± SE, read-out: Blood uptake, parent (corrected for metabolites)
[11] = mouse, kidney, intravenous, mean ± SE, read-out: Kidney uptake, parent (corrected for metabolites)
[12] = 60 min post-injection, mean ± SE
[13] = 120 min post-injection, mean ± SE

T1 sequence (Q04609 whole entry): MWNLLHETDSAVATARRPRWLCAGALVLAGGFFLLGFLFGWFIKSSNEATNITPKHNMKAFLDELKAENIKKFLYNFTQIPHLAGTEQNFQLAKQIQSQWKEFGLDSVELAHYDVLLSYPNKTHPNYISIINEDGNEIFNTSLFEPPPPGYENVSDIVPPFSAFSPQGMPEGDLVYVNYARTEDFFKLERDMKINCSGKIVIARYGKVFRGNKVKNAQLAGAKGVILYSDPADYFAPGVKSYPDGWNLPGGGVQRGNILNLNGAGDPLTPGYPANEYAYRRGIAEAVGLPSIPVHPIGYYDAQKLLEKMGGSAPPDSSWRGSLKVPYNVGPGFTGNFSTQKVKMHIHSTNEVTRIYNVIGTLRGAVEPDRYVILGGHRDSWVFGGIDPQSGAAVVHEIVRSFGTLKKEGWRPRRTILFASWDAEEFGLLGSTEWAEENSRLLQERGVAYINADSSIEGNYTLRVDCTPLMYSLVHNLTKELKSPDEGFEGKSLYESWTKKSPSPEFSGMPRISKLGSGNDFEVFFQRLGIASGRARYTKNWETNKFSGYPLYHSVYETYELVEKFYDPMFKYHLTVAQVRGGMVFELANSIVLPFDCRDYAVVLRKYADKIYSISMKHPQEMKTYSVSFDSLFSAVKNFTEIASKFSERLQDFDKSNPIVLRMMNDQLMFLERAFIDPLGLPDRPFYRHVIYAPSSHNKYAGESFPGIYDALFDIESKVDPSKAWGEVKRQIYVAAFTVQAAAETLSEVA

Compound: O=C(O)CC[C@H](NC(=O)N[C@@H](CCCCNC(=O)CO/N=C\c1ccc([18F])cc1)C(=O)O)C(=O)O [[^18F]1a, reference compound]
- PC3(−) Tumor T:M [1]: 1.07 ± 0.08
- Kd ([2]; saturation assays, mean (SE), n = 3–5): 0.238 nM
- Ki [3]: 0.1 nM
- decrease in Ki compared to Ki of DCFPyL ([3]; p = 0.006): ~ 4 fold
- %Parent compound in blood (TLC analysis) [4]: 50.2 ± 1.4%
- Blood T:M ([5]; 60 min, mean ± SE, n = 8–10): 2.39 ± 0.14
- Femur T:M ([5]; 60 min, mean ± SE, n = 8–10): 0.92 ± 0.09
- Kidney T:M ([5]; 60 min, mean ± SE, n = 8–10): 507.8 ± 44.0
- Liver T:M ([5]; 60 min, mean ± SE, n = 8–10): 35.7 ± 3.1
- PC3(+) Tumor T:M ([5]; 60 min, mean ± SE, n = 8–10): 103.0 ± 10.9

Compound: O=C(O)CCC(NC(=O)NC(CCCCNC(=O)c1ccc([18F])nc1)C(=O)O)C(=O)O (stereo not shown) [[^18F]DCFPyL, 2-(3-(1-carboxy-5-[(6-[^18F]fluoropyridine-3-carbonyl)-amino]-pentyl)-ureido)-pentanedioic acid, reference compound]
- PC3(−) tumor uptake [1]: 0.3 %ID/g
- PC3(−) tumor uptake as fraction of uptake in PC3(+) tumors [1]: < 2%
- PC3(−) Tumor T:M [1]: 1.50 ± 0.17
- Bmax (PSMA expression level) ([2]; n = 5): 13.95 ± 1.60 fmol/µg of protein
- Blood uptake, parent (corrected for metabolites) [4, 8]: 1.06 ± 0.05 %ID/g
- Kidney uptake, parent (corrected for metabolites) [4, 9]: 20.18 ± 0.72 %ID/g
- %Parent compound in blood (TLC analysis) [4]: 49.9 ± 10.7%
- tissue uptake at 0.5 h ([4]; mouse, blood, intravenous, 30 min post-injection, mean ± SE, read-out: Blood uptake, parent (corrected for metabolites)): 0.4 ± 0.02 %ID/g
- tissue uptake at 1 h [4, 10]: 0.26 ± 0.02 %ID/g
- tissue uptake at 2 h [4, 10]: 0.045 ± 0.003 %ID/g
- tissue uptake at 0.25 h ([4]; mouse, kidney, intravenous, 15 min post-injection, mean ± SE, read-out: Kidney uptake, parent (corrected for metabolites)): 17.1 ± 0.84 %ID/g
- tissue uptake at 1 h [4, 11]: 17.6 ± 1.48 %ID/g
- tissue uptake at 2 h [4, 11]: 3.41 ± 0.46 %ID/g
- % of parent in blood ([4]; nude, mouse, in vivo): 50-40
- % of parent in kidney ([4]; nude, mouse, in vivo): 16-7
- PC3(+) tumor uptake ([5]; 15 min): 18.6 %ID/g
- salivary gland T:M ([5]; 15 min): 2.7
- Blood uptake, total radioactivity [5, 8]: 2.66 ± 0.12 %ID/g
- Kidney uptake, total radioactivity [5, 8]: 132.9 ± 6.6 %ID/g
- Blood uptake, total radioactivity [5, 9]: 1.03 ± 0.05 %ID/g
- Kidney uptake, total radioactivity [5, 9]: 126.9 ± 5.6 %ID/g
- PC3(+) tumor uptake ([5]; 60 min): 25.6 %ID/g
- Radioactivity in the blood ([5]; 60 min (Figure 5A)): 0.519 %ID/g
- Blood T:M ([5]; 60 min, mean ± SE, n = 8–10): 2.29 ± 0.15
- Femur T:M ([5]; 60 min, mean ± SE, n = 8–10): 0.90 ± 0.09
- Kidney T:M ([5]; 60 min, mean ± SE, n = 8–10): 695.1 ± 76.0
- Liver T:M ([5]; 60 min, mean ± SE, n = 8–10): 9.88 ± 7.4
- PC3(+) Tumor T:M ([5]; 60 min, mean ± SE, n = 8–10): 124
- Blood uptake, total radioactivity [5, 12]: 0.52 ± 0.06 %ID/g
- Kidney uptake, total radioactivity [5, 12]: 147.7 ± 11.6 %ID/g
- PC3(+) tumor uptake ([5]; 120 min): 20.8 %ID/g
- salivary gland T:M ([5]; 120 min): 2.0
- Blood uptake, total radioactivity [5, 13]: 0.13 ± 0.01 %ID/g
- Kidney uptake, total radioactivity [5, 13]: 50.2 ± 3.6 %ID/g
- Femur uptake ([5]; all times 15 to 120 min): < 1 %ID/g
- Femur T:M ([5]; all times except 120 min): < 1.8
- salivary gland radioactivity cleared ([5]; at 120 min): 92%
- decrease of kidney uptake from 15 to 120 min ([5]; mouse, in vivo): 65%
- decrease of salivary gland T:M from 15 to 120 min ([5]; mouse, in vivo): 34%
- increase in tumor T:M from 15 to 120 min ([5]; mouse, in vivo): 11 fold
- PC3(+) tumor uptake from ROI analysis of PET images [6]: 19 %ID/g
- kidney uptake from ROI analysis of PET images [6]: 187 %ID/g
- liver uptake from ROI analysis of PET images [6]: 3 %ID/g
- increase of liver T:M in blocked group compared to tracer-only group [7]: 2.7 fold
- PC3(+) tumor T:M of the blocked group ([7]; coinjection of DCFPyL 1000×): 50
- decrease of PC3(+) tumor T:M in blocked group compared to non-blocked group ([7]; coinjection of DCFPyL 1000×): 60%
- decrease of kidney T:M in blocked group ([7]; coinjection of DCFPyL 1000×): 96%
- decrease of spleen T:M in blocked group ([7]; coinjection of DCFPyL 1000×): 81%
- liver T:M of the blocked group ([7]; coinjection of DCFPyL 1000×): 27
- reduction in blood and most tissue uptakes (%ID/g) compared to tracer-only group ([7]; coinjection of DCFPyL 1000×): > 50%
- PC3(+) tumor T:M of the tracer-only group of the blocking study ([7]; no blocking dose): 141
